Positions count from the first letter of the chain named. Like-named read-outs stand apart in the source and are kept apart here.
How the values were obtained:
[1] = target: T1, GCase (Homo sapiens, UniProt P04062); assay: GCase activity in cultured healthy human fibroblasts; type: cell-based; settings: 5 days culture
T1 construct: endogenous in cells; host or cells: normal human skin fibroblasts
T1 sequence (P04062 40-536): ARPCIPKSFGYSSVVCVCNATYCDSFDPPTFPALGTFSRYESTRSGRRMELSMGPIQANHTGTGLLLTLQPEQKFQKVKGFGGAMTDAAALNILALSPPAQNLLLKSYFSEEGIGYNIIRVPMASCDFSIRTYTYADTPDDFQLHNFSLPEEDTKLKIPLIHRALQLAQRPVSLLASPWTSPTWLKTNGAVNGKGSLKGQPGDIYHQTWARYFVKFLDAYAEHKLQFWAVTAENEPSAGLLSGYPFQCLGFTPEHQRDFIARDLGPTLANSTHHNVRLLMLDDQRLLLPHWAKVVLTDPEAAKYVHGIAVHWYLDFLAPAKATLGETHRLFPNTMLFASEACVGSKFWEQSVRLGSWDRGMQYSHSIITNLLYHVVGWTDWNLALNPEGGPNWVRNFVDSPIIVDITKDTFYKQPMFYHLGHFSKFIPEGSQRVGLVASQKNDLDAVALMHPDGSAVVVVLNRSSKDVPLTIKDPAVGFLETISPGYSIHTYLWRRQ
Description: For that purpose, cells were cultured for 5 days in the absence and in the presence of various concentrations of the compounds, then lysed, and the enzyme activity was determined using 4-methylumbelliferyl β-D-glucopyranoside as substrate. Higher GCase activities in the lysate indicate that larger amounts of the protein are present and that it is functional.
(§1) Normal and Gaucher disease patients’ skin fibroblasts were cultured in Dulbecco modified Eagle’s medium (WAKO, Richmond, VA, USA) supplemented with 10% fetal bovine serum (Nichirei Biosci. Inc., Tokyo, Japan) at 37 °C in 5% CO2. For measurement of chaperone activities, fibroblasts were plated onto 35 mm dishes at 50,000 cells per dish. After 24 h incubation, the medium with the indicated concentrations of compound was applied and cells were cultured for 96 h. Then, the lysates in 0.1% Triton-X100/distilled H2O were collected from the cells and assayed for lysosomal GCase as described above. To measure the cytotoxic effect of the compounds, normal human fibroblasts were plated onto 35 mm dishes at 15,000 cells per dish and incubated overnight. Then, the medium was changed with or without compounds. After 24 h incubation, the supernatant of the cells was collected and measured by the lactate dehydrogenase assay (WAKO, Richmond, VA, USA). All the cell lines used were tested for mycoplasma contamination before conducting the chaperone and toxicity assays.

[2] = target: T2, human β-glucocerebrosidase (GCase) (Homo sapiens, UniProt P04062, R534H); assay: Purified recombinant human GCase inhibition in vitro; type: biochemical; settings: for Ki: purified recombinant enzyme (Cerezyme), 4-MU glucopyranoside substrate
T2 construct: purchased Genzyme (Genzyme Japan, Tokyo, Japan) / Sanofi Genzyme, Cambridge, MA, USA Cerezyme
T2 sequence (P04062 40-536 R534H): T1 sequence (P04062 40-536) with R495H
Description: Comparative assessment of the inhibition abilities of 1–4 against human lysosomal glycosidases in cell lysates (in vitro enzyme assay; see Experimental Section) confirmed the selectivity pattern previously observed for the commercial enzymes: whereas GCase was responsive to μM concentrations of the sp^2-iminosugars, the activity of lysosomal α-glucosidase, α- and β-galactosidases, α- and β-mannosidases, and hexosaminidase was not affected at concentrations of up to 200 μM. The corresponding Ki values were determined at pH 7 and 5 using purified recombinant human GCase and 4-methylumbelliferone (4-MU)-conjugated […] as the substrate (Table 2).
GCase activities were determined as above using purified human GCase, obtained from Genzyme (Genzyme Japan, Tokyo, Japan) in 0.1 M citrate buffer at pH 5 or pH 7 and 4-methylumbelliferone (4-MU)-conjugated β-D-glucopyranoside as the substrate. The reactions were terminated by adding 0.2 mL of 0.2 M glycine sodium hydroxide buffer (pH 10.7). The liberated 4-methylumbelliferone was measured in a black-well plate with a Perkin Elmer Luminescence Spectrometer, Waltham, MA, USA (excitation wavelength: 340 nm; emission: 460 nm).

[3] = pKa determination; type: physicochemical
[4] = target: T3, N188S/G183W mutant GCase (Homo sapiens, UniProt P04062, N227S); assay: Chaperone test in N188S/G183W type 3 Gaucher patient fibroblasts; type: cell-based; settings: N188S/G183W Gaucher fibroblasts
T3 construct: endogenous in cells; host or cells: skin fibroblasts of N188S/G183W type 3 Gaucher patients
T3 sequence (P04062 40-536 N227S): T1 sequence (P04062 40-536) with N188S
Source text: To test the chaperoning capabilities, Gaucher fibroblasts from patients hosting the adult neuronopathic (type 3) Gaucher disease-associated N188S/G183W mutant GCase were employed. It is worth mentioning that the neuronopathic clinical subtypes of Gaucher disease remain currently at orphan status, given the inability of the recombinant enzyme used in enzyme replacement therapy or the glucosylceramide synthase inhibitor Zavesca® used in substrate reduction therapy to cross the blood–brain barrier. This mutation is located in the catalytic domain (domain III) of GCase and has been previously found to be responsive to sp^2-iminosugar-type chaperones. […] Yet, the activity trend as a function of the chaperone concentration was starkly different between them. Thus, the nonreducing representatives 3 and 4 reached the maximum chaperoning effect at 200 nM and as low as 2 nM concentration, respectively, as compared with 20 and 2 μM for the reducing homologues 1 and 2.
as §1

[5] = system: L444P mutant GCase; set-up: method as in PMID 22512696; settings: homozygous L444P Gaucher lymphoblasts; cited from earlier work
[6] = system: L444P mutant GCase; settings: homozygous L444P Gaucher fibroblasts; cited from earlier work
[7] = pH 5, read-out: Ki human GCase, pH 5
[8] = pH 7, read-out: Ki human GCase, pH 7

CCCCCCCCN=C1OCC2C(O)C(O)C(O)C(O)N12 (stereo not shown) [Compound 1]
GCase activity in healthy human fibroblasts over the whole range of concentrations [1]: essentially unaltered | Ki [2, 7]: 54.4 ± 0.38 µM | Ki [2, 8]: 15.1 ± 0.97 µM | pKa [3]: 8.9 | concentration of maximum chaperoning effect [4]: 20 µM

CCCCCCCCN=C1SCC2C(O)C(O)C(O)C(O)N12 (stereo not shown) [Compound 2]
GCase activity in healthy human fibroblasts over the whole range of concentrations [1]: essentially unaltered | fold enhancement of GCase inhibition potency upon replacement of O-6 by sulfur, pH 5 ([2]; pH 5, 2 vs 1, 4 vs 3): 52 fold | Ki [2, 7]: 1.05 ± 0.068 µM | fold enhancement of GCase inhibition potency upon replacement of O-6 by sulfur, pH 7 ([2]; pH 7, 2 vs 1, 4 vs 3): 58 fold | Ki [2, 8]: 0.26 ± 0.013 µM | pKa [3]: 8.3 | concentration of maximum chaperoning effect [4]: 2 µM

CCCCCCCC/N=C1/OC[C@@H]2[C@@H](O)[C@H](O)[C@@H](O)CN12 [Compound 3]
GCase activity in lysates of healthy human fibroblasts at 20 μM ([1]; 20 μM): virtually full inhibition | GCase activity in lysates of healthy human fibroblasts at higher concentrations ([1]; concentrations higher than 20 nM): significantly inhibited | fold stronger GCase inhibition of nonreducing vs reducing partner ([2]; 3 vs 1, 4 vs 2): about 10 fold | Ki [2, 7]: 6.3 ± 0.16 µM | Ki [2, 8]: 1.7 ± 0.066 µM | pKa [3]: 9.3 | concentration of maximum chaperoning effect [4]: 0.2 µM | concentration over which chaperone/inhibitor balance is unfavorable (net decrease in mutant enzyme activity vs control) [4]: over 20 μM

CCCCCCCCCN[C@H]1[C@H](O)[C@@H](O)[C@H](O)[C@@H](O)[C@@H]1OCCCCCCCCC [Compound 19, (1R,2S,3R,4S,5S,6R)-5-(nonylamino)-6-(nonyloxy)cyclohexane-1,2,3,4-tetraol]
mutant GCase activity enhancement at 10 pM [5]: 40%

CCCCCCCCCC(=O)OC[C@H](C[C@H]1NC[C@@H](O)[C@H](O)[C@H]1O)OC(=O)CCCCCCCCC [Compound 23]
mutant GCase activity enhancement at 50 nM [6]: 100%

Reference: article PMC6017062, “Probing the Inhibitor versus Chaperone Properties of sp^2-Iminosugars towards Human β-Glucocerebrosidase: A Picomolar Chaperone for Gaucher Disease” (Molecules : A Journal of Synthetic Chemistry and Natural …, 2018)
